Experimental data reported in ChEMBL document CHEMBL5724914, “Linking interpersonal differences in gut microbiota composition and drug biotransformation activity” (2024).

Columns and labels:
[1] = (§1) The drug is tested on WLS-170 corresponding to human gut metagenome with ENA study accession number: PRJEB37062 and ENA sample accession number: ERS12561762 for biotransformation under anaerobic condition. The drug concentrations were measured over 9 timepoints collected between 0 and 24 hours of incubation by liquid-chromatography-coupled mass spectrometry (LC–MS); details: 2 µM
[2] = as §1, with “Z-013” for “WLS-170”, “rabbit” for “human”, “ERS12561813” for “ERS12561762”; details: 2 µM
[3] = human gut metagenome, 24 h, 2 µM
[4] = as §1, with “WLS-370” for “WLS-170”, “ERS12561793” for “ERS12561762”; details: 2 µM
[5] = as §1, with “Z-023” for “WLS-170”, “to” for “to human gut”, “ERS12561822” for “ERS12561762”; details: 2 µM
[6] = as §1, with “WLS-082” for “WLS-170”, “ERS12561751” for “ERS12561762”; details: 2 µM
[7] = as §1, with “Z-010” for “WLS-170”, “to” for “to human gut”, “ERS12561810” for “ERS12561762”; details: 2 µM
[8] = as §1, with “Z-021” for “WLS-170”, “to” for “to human gut”, “ERS12561820” for “ERS12561762”; details: 2 µM
[9] = human gut metagenome, 24 h, 2 µM; remark: listed apart in the source
[10] = as §1, with “Z-028” for “WLS-170”, “mouse” for “human”, “ERS12561827” for “ERS12561762”; details: 2 µM
[11] = human gut metagenome, 24 h, 2 µM; remark: listed apart in the source
[12] = as §1, with “Z-018” for “WLS-170”, “pig” for “human”, “ERS12561817” for “ERS12561762”; details: 2 µM
[13] = as §1, with “WLS-086” for “WLS-170”, “ERS12561752” for “ERS12561762”; details: 2 µM
[14] = as §1, with “Z-006” for “WLS-170”, “mouse” for “human”, “ERS12561806” for “ERS12561762”; details: 2 µM
[15] = as §1, with “Z-005” for “WLS-170”, “to” for “to human gut”, “ERS12561805” for “ERS12561762”; details: 2 µM
[16] = human gut metagenome, 24 h, 2 µM; remark: listed apart in the source
[17] = human gut metagenome, 24 h, 2 µM; remark: listed apart in the source
[18] = human gut metagenome, 24 h, 2 µM; remark: listed apart in the source
[19] = as §1, with “WLS-098” for “WLS-170”, “ERS12561754” for “ERS12561762”; details: 2 µM
[20] = as §1, with “WLS-010” for “WLS-170”, “ERS12561743” for “ERS12561762”; details: 2 µM
Also: call rule not given here.

SMILES	Bacterial Biotransformation [1]	Bacterial Biotransformation [2]	Bacterial Biotransformation [3]	Bacterial Biotransformation [4]	Bacterial Biotransformation [5]	Bacterial Biotransformation [6]	Bacterial Biotransformation [7]	Bacterial Biotransformation [8]	Bacterial Biotransformation [9]	Bacterial Biotransformation [10]	Bacterial Biotransformation [11]	Bacterial Biotransformation [12]	Bacterial Biotransformation [13]	Bacterial Biotransformation [14]	Bacterial Biotransformation [15]	Bacterial Biotransformation [16]	Bacterial Biotransformation [17]	Bacterial Biotransformation [18]	Bacterial Biotransformation [19]	Bacterial Biotransformation [20]
CCN(CC)C(=O)C1(c2ccccc2)CC1CN (stereo not given)	Compound metabolized	Compound NOT metabolized	Compound NOT metabolized	Compound NOT metabolized	Compound NOT metabolized	Compound NOT metabolized	Compound NOT metabolized	Compound NOT metabolized	Compound NOT metabolized	Compound NOT metabolized	Compound NOT metabolized	Compound NOT metabolized	Compound NOT metabolized	Compound NOT metabolized	Compound NOT metabolized	Compound NOT metabolized	Compound NOT metabolized	Compound NOT metabolized	Compound NOT metabolized	Compound NOT metabolized
Nc1nc(NC2CC2)c2ncn([C@H]3C=C[C@@H](CO)C3)c2n1.Nc1nc(NC2CC2)c2ncn([C@H]3C=C[C@@H](CO)C3)c2n1.O=S(=O)(O)O [ABACAVIR SULFATE]	Compound metabolized	Compound NOT metabolized	Compound metabolized	Compound NOT metabolized	Compound NOT metabolized	Compound NOT metabolized	Compound metabolized	Compound NOT metabolized	Compound metabolized	Compound NOT metabolized	Compound metabolized	Compound NOT metabolized	Compound metabolized	Compound NOT metabolized	Compound NOT metabolized	Compound metabolized	Compound NOT metabolized	Compound metabolized	Compound metabolized	Compound NOT metabolized
CCN(CC)CCNC(=O)c1ccc(NC(C)=O)cc1 [ACECAINIDE]	Compound metabolized	Compound NOT metabolized	Compound NOT metabolized	Compound NOT metabolized	Compound NOT metabolized	Compound NOT metabolized	Compound NOT metabolized	Compound NOT metabolized	Compound metabolized	Compound NOT metabolized	Compound metabolized	Compound NOT metabolized	Compound metabolized	Compound NOT metabolized	Compound NOT metabolized	Compound NOT metabolized	Compound NOT metabolized	Compound NOT metabolized	Compound metabolized	Compound NOT metabolized
O=C1CN2Cc3c(ccc(Cl)c3Cl)N=C2N1 [ANAGRELIDE]	Compound metabolized	Compound NOT metabolized	Compound NOT metabolized	Compound NOT metabolized	Compound metabolized	Compound metabolized	Compound metabolized	Compound NOT metabolized	Compound metabolized	Compound NOT metabolized	Compound metabolized	Compound NOT metabolized	Compound metabolized	Compound NOT metabolized	Compound NOT metabolized	Compound NOT metabolized	Compound NOT metabolized	Compound NOT metabolized	Compound metabolized	Compound metabolized
CN(C)C(=O)Oc1cc(OC(=O)N(C)C)cc(C(O)CNC(C)(C)C)c1 (stereo not given) [BAMBUTEROL]	Compound NOT metabolized	Compound NOT metabolized	Compound NOT metabolized	Compound NOT metabolized	Compound metabolized	Compound NOT metabolized	Compound NOT metabolized	Compound metabolized	Compound metabolized	Compound NOT metabolized	Compound metabolized	Compound NOT metabolized	Compound metabolized	Compound NOT metabolized	Compound NOT metabolized	Compound NOT metabolized	Compound NOT metabolized	Compound metabolized	Compound metabolized	Compound NOT metabolized
CCc1oc2ccccc2c1C(=O)c1cc(Br)c(O)c(Br)c1 [BENZBROMARONE]	Compound metabolized	Compound NOT metabolized	Compound metabolized	Compound NOT metabolized	Compound NOT metabolized	Compound metabolized	Compound metabolized	Compound NOT metabolized	Compound metabolized	Compound metabolized	Compound metabolized	Compound metabolized	Compound metabolized	Compound NOT metabolized	Compound metabolized	Compound metabolized	Compound NOT metabolized	Compound metabolized	Compound metabolized	Compound metabolized
O=C1CC2(CCCC2)CC(=O)N1CCCCN1CCN(c2ncccn2)CC1 [BUSPIRONE]	Compound metabolized	Compound NOT metabolized	Compound metabolized	Compound NOT metabolized	Compound metabolized	Compound NOT metabolized	Compound metabolized	Compound NOT metabolized	Compound metabolized	Compound NOT metabolized	Compound metabolized	Compound NOT metabolized	Compound metabolized	Compound NOT metabolized	Compound NOT metabolized	Compound metabolized	Compound NOT metabolized	Compound NOT metabolized	Compound metabolized	Compound NOT metabolized
CCCC(C)(COC(N)=O)COC(=O)NC(C)C (stereo not given) [CARISOPRODOL]	Compound metabolized	Compound NOT metabolized	Compound metabolized	Compound metabolized	Compound metabolized	Compound metabolized	Compound metabolized	Compound NOT metabolized	Compound metabolized	Compound metabolized	Compound metabolized	Compound metabolized	Compound metabolized	Compound metabolized	Compound metabolized	Compound metabolized	Compound NOT metabolized	Compound metabolized	Compound metabolized	Compound metabolized
